Test results taken from ChEMBL document CHEMBL1155464, “Potent tricyclic pyrazole tetrazole agonists of the nicotinic acid receptor (GPR109a)” (Bioorg Med Chem Lett, 2010).
Activity calls are given as the source filed them. No cut-off for these calls is given here.

Legend:
[1] = tested on: Mus musculus; experiment: Antidyslipidemic activity in po dosed mouse assessed as reduction of plasma free fatty acids; assay type: functional
[2] = Antidyslipidemic activity in human adipocytes assessed as inhibition of isoproteranol-induced production of free fatty acids; conditions: Adipocyte
[3] = biological target: Hydroxycarboxylic acid receptor 3 (Homo sapiens) (UniProt P49019); experiment: Agonist activity at GPR109b; assay type: functional
[4] = biological target: Hydroxycarboxylic acid receptor 3 (Homo sapiens) (UniProt P49019); experiment: Agonist activity at GPR109b at 5 to 10 uM; assay type: functional
[5] = species on record: Mus musculus; experiment: Inhibition of prostaglandin-induced vasodilation in mouse; assay type: functional, organism-based
[6] = species on record: Mus musculus; experiment: Inhibition of niacin-induced vasodilation in mouse; assay type: functional, organism-based
[7] = tested on: Mus musculus; experiment: Induction of vasodilation in mouse assessed as laser doppler changes in ears at 100 mg/kg; assay type: functional, organism-based; parameters: dose 100 mg/kg
[8] = Half life in rat at 3 mg/kg, iv and 10 mg/kg, po; assay type: ADME, organism-based; conditions: in vivo
[9] = Plasma clearance in mouse at 3 mg/kg, iv and 10 mg/kg, po; assay type: ADME, organism-based
[10] = Volume of distribution at steady state in mouse at 3 mg/kg, iv and 10 mg/kg, po; assay type: ADME, organism-based; conditions: in vivo, read-out: Vdss
[11] = Volume of distribution at steady state in rat at 3 mg/kg, iv and 10 mg/kg, po; assay type: ADME, organism-based; conditions: in vivo, read-out: Vdss
[12] = Plasma clearance in monkey at 3 mg/kg, iv and 10 mg/kg, po; assay type: ADME, organism-based, Macaca mulatta; conditions: rhesus monkey
[13] = Plasma clearance in dog at 3 mg/kg, iv and 10 mg/kg, po; assay type: ADME, organism-based, Canis lupus familiaris
[14] = Cmax in mouse at 3 mg/kg, iv and 10 mg/kg, po; assay type: ADME, organism-based; conditions: in vivo
[15] = Oral bioavailability in rat at 10 mg/kg; assay type: ADME, organism-based; conditions: in vivo
[16] = Cmax in rat at 3 mg/kg, iv and 10 mg/kg, po; assay type: ADME, organism-based; conditions: in vivo
[17] = Volume of distribution at steady state in monkey at 3 mg/kg, iv and 10 mg/kg, po; assay type: ADME, organism-based, Macaca mulatta; conditions: rhesus monkey, in vivo, read-out: Vdss
[18] = Oral bioavailability in mouse at 10 mg/kg; assay type: ADME, organism-based; conditions: in vivo
[19] = Half life in mouse at 3 mg/kg, iv and 10 mg/kg, po; assay type: ADME, organism-based; conditions: in vivo
[20] = Cmax in monkey at 3 mg/kg, iv and 10 mg/kg, po; assay type: ADME, organism-based, Macaca mulatta; conditions: rhesus monkey, in vivo
[21] = Volume of distribution at steady state in dog at 3 mg/kg, iv and 10 mg/kg, po; assay type: ADME, organism-based, Canis lupus familiaris; conditions: in vivo, read-out: Vdss
[22] = Plasma clearance in rat at 3 mg/kg, iv and 10 mg/kg, po; assay type: ADME, organism-based
[23] = Cmax in dog at 3 mg/kg, iv and 10 mg/kg, po; assay type: ADME, organism-based, Canis lupus familiaris; conditions: in vivo
[24] = Oral bioavailability in monkey at 10 mg/kg; assay type: ADME, organism-based, Macaca mulatta; conditions: rhesus monkey, in vivo
[25] = Half life in monkey at 3 mg/kg, iv and 10 mg/kg, po; assay type: ADME, organism-based, Macaca mulatta; conditions: rhesus monkey, in vivo
[26] = Oral bioavailability in dog at 10 mg/kg; assay type: ADME, organism-based, Canis lupus familiaris; conditions: in vivo
[27] = Half life in dog at 3 mg/kg, iv and 10 mg/kg, po; assay type: ADME, organism-based, Canis lupus familiaris; conditions: in vivo

Hydroxycarboxylic acid receptor 3 (Homo sapiens), sequence (P49019 whole entry): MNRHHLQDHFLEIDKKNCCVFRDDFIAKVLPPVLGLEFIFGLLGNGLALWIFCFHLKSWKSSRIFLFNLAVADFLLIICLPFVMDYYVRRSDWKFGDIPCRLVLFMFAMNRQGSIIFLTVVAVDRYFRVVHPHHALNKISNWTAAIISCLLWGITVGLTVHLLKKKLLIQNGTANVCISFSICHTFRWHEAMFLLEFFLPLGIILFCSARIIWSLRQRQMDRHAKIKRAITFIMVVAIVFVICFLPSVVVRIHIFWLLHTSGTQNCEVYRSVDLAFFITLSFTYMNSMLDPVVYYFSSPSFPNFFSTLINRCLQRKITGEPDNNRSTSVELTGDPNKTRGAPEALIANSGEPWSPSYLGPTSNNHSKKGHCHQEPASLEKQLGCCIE

SMILES: C1Cc2[nH]nc(-c3nn[nH]n3)c2C1
- ED50 [1]: 3.1 mg/kg
- IC50 [2]: 870 nM
- Activity [3]: inactive

SMILES: C/C=C/[C@@H]1[C@H]2Cc3c(-c4nnn[nH]4)n[nH]c3[C@@H]12
- Activity [3]: inactive

SMILES: C1CC1[C@@H]1[C@H]2Cc3c(-c4nnn[nH]4)n[nH]c3[C@H]21
- Activity [3]: inactive

SMILES: C1CCC2(C1)[C@@H]1c3[nH]nc(-c4nnn[nH]4)c3C[C@@H]12
- Activity [3]: inactive

SMILES: C=CC[C@@H]1[C@H]2Cc3c(-c4nnn[nH]4)n[nH]c3[C@@H]12
- Activity [3]: inactive

SMILES: C=CC[C@H]1[C@H]2Cc3c(-c4nnn[nH]4)n[nH]c3[C@H]21
- Activity [3]: inactive

SMILES: C=C[C@@H]1[C@H]2Cc3c(-c4nnn[nH]4)n[nH]c3[C@@H]12
- Activity [3]: inactive

SMILES: C=C[C@H]1[C@H]2Cc3c(-c4nnn[nH]4)n[nH]c3[C@@H]12
- Activity [3]: inactive

SMILES: CC(C)CC[C@@H]1C2Cc3c(-c4nnn[nH]4)n[nH]c3[C@H]21 (stereo not given in full)
- Activity [3]: inactive

SMILES: CC(C)C[C@@H]1[C@H]2Cc3c(-c4nnn[nH]4)n[nH]c3[C@H]21
- Activity [3]: inactive
- Activity [4]: Active

SMILES: CC(C)C[C@H]1C2Cc3c(-c4nnn[nH]4)n[nH]c3[C@H]21 (stereo not given in full)
- Activity [3]: inactive

SMILES: CC1(C)[C@@H]2c3[nH]nc(-c4nnn[nH]4)c3C[C@@H]21
- Activity [3]: inactive

SMILES: CCCCC[C@@H]1[C@H]2Cc3c(-c4nnn[nH]4)n[nH]c3[C@@H]12
- Activity [3]: inactive

SMILES: CCCCC[C@H]1[C@H]2Cc3c(-c4nnn[nH]4)n[nH]c3[C@H]21
- Activity [3]: inactive

SMILES: CCCC[C@@H]1[C@H]2Cc3c(-c4nnn[nH]4)n[nH]c3[C@@H]12
- Activity [3]: inactive
- Activity [4]: Active

SMILES: CCC[C@@H]1[C@H]2Cc3c(-c4nnn[nH]4)n[nH]c3[C@@H]12
- Activity [3]: inactive
- Activity [4]: Active

SMILES: CC[C@@H]1[C@H]2Cc3c(-c4nnn[nH]4)n[nH]c3[C@@H]12
- Activity [3]: inactive

SMILES: COC[C@@H]1[C@H]2Cc3c(-c4nnn[nH]4)n[nH]c3[C@@H]12
- Activity [3]: inactive

SMILES: C[C@@H]1[C@H]2Cc3c(-c4nnn[nH]4)n[nH]c3[C@@H]12
- Activity [3]: inactive

SMILES: C[C@H]1[C@H]2Cc3c(-c4nnn[nH]4)n[nH]c3[C@@H]12
- Activity [3]: inactive

SMILES: C1c2c(-c3nnn[nH]3)n[nH]c2C2CC12 (racemic)
- Activity [3]: inactive

SMILES: C1c2c(-c3nnn[nH]3)n[nH]c2[C@H]2C[C@@H]12 (stereo in doubt; (+)17a)
- Activity [5]: inactive
- Activity [6]: Active
- Activity [7]: inactive
- Activity [3]: inactive

SMILES: C1c2c(-c3nnn[nH]3)n[nH]c2[C@H]2C[C@@H]12 (stereo in doubt; (+)17a) [3-(1H-TETRAZOL-5-YL)-4,4A,5,5A-TETRAHYDRO-1H-CYCLOPROPA[4,5]CYCLOPENTA[1,2-C]PYRAZOLE (STRUCTURAL MIX)]
- half-life [8]: 1.9 h
- clearance [9]: 61.6 mL/min/kg
- Vd [10]: 3.4 L/kg
- Vd [11]: 0.34 L/kg
- clearance [12]: 13.9 mL/min/kg
- clearance [13]: 12.4 mL/min/kg
- Cmax [14]: 2 µM
- bioavailability [15]: 37%
- ED50 [1]: 0.52 mg/kg
- Cmax [16]: 4.9 µM
- Vd [17]: 0.96 L/kg
- bioavailability [18]: 97%
- IC50 [2]: 90 nM
- half-life [19]: 2.4 h
- Cmax [20]: 11.7 µM
- Vd [21]: 0.53 L/kg
- clearance [22]: 25.5 mL/min/kg
- Cmax [23]: 36.9 µM
- bioavailability [24]: > 100%
- half-life [25]: 7.3 h
- bioavailability [26]: > 100%
- half-life [27]: 1.9 h

SMILES: C1c2c(-c3nnn[nH]3)n[nH]c2[C@H]2C[C@@H]12 (stereo in doubt; (-)17a)
- Activity [3]: inactive

SMILES: O=C(O)c1cccnc1 [NIACIN]
- IC50 [2]: 60 nM
- Activity [3]: inactive
